From patent publication US9228998B2, “Drug monitoring methods using the promyelocytic leukemia protein as a redox sensor” (Institut National de la Sante et de la Recherche Medicale …, priority 2010, dated 2016)

What was measured:
PML = target: T1, PML (Homo sapiens, UniProt P29590); assay: Western-blot analysis under non-reducing conditions of PML-transfected CHO cells (disulfide-linked PML complexes); format: cell-based; set-up: amounts of covalent PML multimers: concentration or dose not given beside the values; settings: for amounts of covalent PML multimers: short exposure, CHO cells transiently overexpressing PML; for covalent PML homodimers: transiently PML- or PML3KR-transfected cells, non-reducing conditions; for formation of covalent multimers: pretreatment, transiently PML-transfected CHO cells
T1 construct: expressed in transfected cells; host or cells: CHO (transient)
T1 sequence (P29590 1-641 isoform P29590-9): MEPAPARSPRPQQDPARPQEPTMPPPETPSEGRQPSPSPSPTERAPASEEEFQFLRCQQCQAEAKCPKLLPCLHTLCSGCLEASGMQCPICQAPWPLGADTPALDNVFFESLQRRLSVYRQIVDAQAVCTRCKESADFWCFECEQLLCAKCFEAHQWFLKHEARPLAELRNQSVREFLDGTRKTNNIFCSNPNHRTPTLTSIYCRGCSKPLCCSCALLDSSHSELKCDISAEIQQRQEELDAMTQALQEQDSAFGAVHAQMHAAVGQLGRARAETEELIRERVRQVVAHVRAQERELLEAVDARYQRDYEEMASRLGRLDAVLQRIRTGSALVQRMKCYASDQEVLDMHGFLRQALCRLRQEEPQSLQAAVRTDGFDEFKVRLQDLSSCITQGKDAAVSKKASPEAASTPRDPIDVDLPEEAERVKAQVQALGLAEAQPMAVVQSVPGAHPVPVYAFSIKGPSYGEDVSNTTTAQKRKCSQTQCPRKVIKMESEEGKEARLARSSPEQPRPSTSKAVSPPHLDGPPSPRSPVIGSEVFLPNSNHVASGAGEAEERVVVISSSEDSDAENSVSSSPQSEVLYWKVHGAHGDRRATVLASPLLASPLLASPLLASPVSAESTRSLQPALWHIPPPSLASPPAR
Experimental: (§1) HeLa, MRC5, CHO, COS, SaOS and Pml−/− MEF cells were cultured in 10% Fetal calf serum DMEM medium (Gibco). Plasmid transfections were performed in CHO or COS with Effectene transfection reagent (Qiagen). Stable CHO cell lines, expressing the PML isoform, or its mutants, were obtained by cotransfection of pSG5-PMLΔSIM, pSG5-3K/RΔSIM, pSG5-C212A or pSG5-B1 with the Dsp-Hygro vector; selected for 2 weeks in […] hygromycin-containing media. Clones were selected for similar PML expression levels. PML WT, PML C60A, PMLΔCC and PML 3K/R stable expressing cell lines were described previously^25. MRC5 or SaOS were grown on coverslides and treated with 400 U/ml IFNg for 48 h and IFNa for 24 h to induce PML expression. Primary mouse APL blasts were obtained from serially transplanted APLs^16 and then cultured in RPMI medium, 10% FCS supplemented with IL-3, IL-6 and SCF (Gibco). Infection of immortalized pml−/− MEFs or primary progenitors was performed with retroviruses produced by CaCl2 transfection of Plat-E cells by with the MSCV-PML/RARA retroviral vector^16. Pml−/− or +/+ MEF cells were similarly transduced with MSCV-PML or PML mutants.
(§2) As2O3 (Fluka) treatments were performed at 1 mM or 10 mM for 1 h. H2O2 from SIGMA-Aldrich was performed for 30 min at 0.1, 1 or 10 mM as indicated, Phenylarsine oxide (PAO) was purchased from SIGMA, solubilized at 50 mg/ml in DMSO and used at 0.1 mM, 1 mM or 10 mM for 1 h, CdCl2 from Flucka, was used at a final concentration of 10 mM. Cells were treated with 10 mM Lactacystin (Calbiochem) overnight, and with 50 mg/ml ready-made cycloheximide (SIGMA) as indicated. Pre-treatments with 100 mM N-ethyl maleimide (NEM) (SIGMA) for 30 min were carried out before adding As2O3 or H2O2. TC-FlAsH (FlAs) was from Molecular Probes; cells growing on coverslides were treated with 1 mM for 1 h, washed in PBS before PFA fixation. Dithiarsolan-biotin conjugate (arsenic-biotin) was kindly given by Kenneth L. Kirk^53, solubilized in DMSO to a 5 mM stock solution, and used on cell culture at 10 mM for 1 h.
Cell lysates were resolved on 7%, 3 to 10% gradient or 12% SDS-PAGE gels and transferred onto nitrocellulose membranes. Detection was performed with the chemi-luminescent substrate SuperSignal WestPico (Pearce), using previously described home made mouse and chicken anti-hPML antibodies^15,25, the PML isoform-specific antibodies were characterized previously^29. For analysis under non-reducing conditions, b-Mercapto-Ethanol or DTT was omitted from the standard Laemmli buffer. In situ nuclear matrix was prepared as for immunofluorescence, but finally resuspended in Laemmli buffer. Purifications of 6M Guanidium-HCl denatured (His×6)-tagged proteins were done with Ni-NTA-agarose from Qiagen, as previously^25. The purification of the arsenic-bound proteins were performed from As-biotin treated CHO-PML or transiently pSG5-PML wt or C212A transfected COS cells. Cells were lysed in 2% SDS-containing RIPA with Protease Inhibitor Cocktail (PIC) (Roche Applied Science), denatured at 95° C. for 5 min to release nuclear matrix-associated PML. Streptavidin-agarose (Molecular Probes) was added to the […] lysates for 30 min to 1 h, washed three times in RIPA and arsenic bound proteins were eluted in Laemmli buffer.
Intermolecular disulfide bonds were previously implicated in stabilization of the nuclear matrix. […] We then compared total and nuclear matrix extracts from transiently transfected CHO cells under non-reducing conditions and observed that the matrix fraction was dramatically enriched in covalent PML dimers.

endogenous murine PML = target: T2, endogenous murine PML (Mus musculus, UniProt Q60953); assay: NB formation by endogenous murine PML in bone marrow cells of treated mice; format: in vivo; settings: normal bone marrow cells of treated mice
T2 construct: from tissue; host or cells: mouse bone marrow cells (cytospins, FVB/NICO mice)
T2 sequence (Q60953 1-885): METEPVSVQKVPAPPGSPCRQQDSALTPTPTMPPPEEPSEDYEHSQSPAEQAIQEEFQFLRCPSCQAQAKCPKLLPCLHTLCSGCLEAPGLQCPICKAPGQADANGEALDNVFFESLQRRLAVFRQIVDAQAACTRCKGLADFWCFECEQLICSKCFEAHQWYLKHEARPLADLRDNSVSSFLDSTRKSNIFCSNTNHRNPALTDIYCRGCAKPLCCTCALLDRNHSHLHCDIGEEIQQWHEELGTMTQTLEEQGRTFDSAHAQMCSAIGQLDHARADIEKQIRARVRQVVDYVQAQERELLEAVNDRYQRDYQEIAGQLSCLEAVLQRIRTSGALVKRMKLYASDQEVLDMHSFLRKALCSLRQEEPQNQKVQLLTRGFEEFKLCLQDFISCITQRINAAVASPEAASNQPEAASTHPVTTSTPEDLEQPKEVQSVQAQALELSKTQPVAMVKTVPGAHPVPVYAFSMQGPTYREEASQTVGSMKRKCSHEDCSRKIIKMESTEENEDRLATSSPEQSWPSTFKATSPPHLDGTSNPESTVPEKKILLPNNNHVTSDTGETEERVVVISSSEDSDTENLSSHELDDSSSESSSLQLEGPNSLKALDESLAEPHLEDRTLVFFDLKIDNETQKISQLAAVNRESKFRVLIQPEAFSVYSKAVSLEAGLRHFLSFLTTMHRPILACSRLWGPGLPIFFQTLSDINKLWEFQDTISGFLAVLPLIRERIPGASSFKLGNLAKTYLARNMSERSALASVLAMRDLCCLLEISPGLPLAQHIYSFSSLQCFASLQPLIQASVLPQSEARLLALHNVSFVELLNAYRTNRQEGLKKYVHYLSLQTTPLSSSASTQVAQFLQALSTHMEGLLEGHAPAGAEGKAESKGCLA
Experimental: (§3) Mouse experiments were repeated 3 times. Animal handling was done according to the guidelines of institutional animal care committees, using protocols approved by “Comité Régional d'Ethique Expérimentation Animale (CREEA) no 4”. 25 mg/kg Paraquat (SIGMA) was daily intraperitoneally injected in PML/RARA and PML/RARA-S77A leukemic mice^17 (to be fully described elsewhere). In vivo imaging was performed using a Xenogen IVIS100 facility to ensure similar tumor mass pre-treatment. Mice were treated with 150 mg/kg for 1 h before bone marrow cytospins (from FVB/NICO) and […] tumor cryosections (NUDE/SWISS) immuno-histochemistry; CHO-PML xenografts were performed as before^42.
(§4) Disulfide bonds are oxidant-sensitive. […] As ROS status is profoundly altered in cell culture, we examined NBs in vivo in basal conditions and after acute induction of ROS. […] Thus, oxidation-triggered disulfide bonds in PML regulate its partitioning between the nucleoplasm and nuclear matrix associated NBs.
(§5) We next investigated whether oxidants enhance disulfide-bound PML multimerization. […] We thus examined whether paraquat, an acute ROS inducer, would regulate NB formation in vivo, a setting where ROS levels are likely more controlled.

PML NBs [1] = target: T3, PML NBs (Homo sapiens, UniProt P29590); assay: NB formation in CHO-PML xenografts in nude mice; format: in vivo; settings: treatment of nude mice bearing CHO-PML xenografts
T3 construct: expressed in transfected cells
T3 sequence (P29590 1-641 isoform P29590-9): T1 sequence (P29590 1-641 isoform P29590-9)
Experimental: as §3, §4, §5

PML NBs [2] = target: T3, PML NBs; assay: PML NBs in cultured cells (CHO-PML), immunofluorescence; format: cell-based
Experimental: as §1, §2
Immunofluorescence, electronic microscopy and antibodies were previously described^15. In situ nuclear matrix preparations were prepared as described^1. Confocal analyses were performed on a LSM510 Meta laser microscope (Carl Zeiss MicroImaging, Inc.) with a plan apochromat 63X N.A.1.4 oil immersion objective and increased resolution images were obtained with deconvolution software (Autodeblur, Image Quant) using blind iterative algorithms.

SMILES | amounts of covalent PML multimers (PML) | covalent PML homodimers (PML) | NB formation by endogenous murine PML (endogenous murine PML) | NB formation in CHO-PML xenografts (PML NBs [1]) | NBs in cultured cells with strong oxidants (PML NBs [2]) | formation of covalent multimers (PML) | also measured
O=[As]O[As]=O (centres unmarked) [As2O3] | massively increased | dramatic increase | Enhanced NB formation | dramatic increase in NB formation |  |  | 
C[n+]1ccc(-c2cc[n+](C)cc2)cc1 [Paraquat] |  |  | Identical results | dramatic increase in NBs |  |  | NB formation by endogenous murine PML (endogenous murine PML; listed as paraquat): Enhanced NB formation; NB formation in CHO-PML xenografts (PML NBs [1]; listed as paraquat): dramatic increase in NB formation
[Cl][Cd][Cl] [CdCl2] | massively increased |  |  |  | disrupt NBs |  | 
OO [H2O2] | massively increased | dramatic increase |  |  | disrupt NBs |  | 
CC(=O)N[C@@H](CS)C(=O)O [NAC, N-acetyl cysteine] |  |  |  |  |  | abrogated | basal NB formation (PML NBs [2]; CHO-PML cells cultured for 10 days with the ROS scavenger): lost basal NB formation; NBs after wash-out (PML NBs [2]; CHO-PML cells, 3 day wash-out after 10 days culture): NBs were restored; abundance of the high molecular weight PML forms (PML; pretreatment of CHO cells prior to PML transfection): dramatic decrease
CCN1C(=O)C=CC1=O [NEM, N-ethyl maleimide] |  |  |  |  |  | abrogated | basal PML NBs (PML NBs [2]; untreated cells / CHO-PML cells, 1 hr treatment): disrupted basal PML NBs; As2O3 or H2O2-enhanced homodimer formation (PML; thiol alkylator added with As2O3 or H2O2): abrogated
